Key:
[1] = target: T1, S-adenosylhomocysteine hydrolase (AHCY) (Homo sapiens, UniProt P23526); assay: enzymatic turnover of SAH by purified recombinant AHCY, LC-MS quantification of adenosine; type: biochemical
T1 construct: human full-length AHCY, N-terminal 6xHis tag

[2] = target: T1, S-adenosylhomocysteine hydrolase (AHCY); assay: steady-state inhibition kinetics on purified recombinant AHCY, ADA-coupled, LC-MS quantification of inosine; type: biochemical

T1 sequence (P23526 whole entry): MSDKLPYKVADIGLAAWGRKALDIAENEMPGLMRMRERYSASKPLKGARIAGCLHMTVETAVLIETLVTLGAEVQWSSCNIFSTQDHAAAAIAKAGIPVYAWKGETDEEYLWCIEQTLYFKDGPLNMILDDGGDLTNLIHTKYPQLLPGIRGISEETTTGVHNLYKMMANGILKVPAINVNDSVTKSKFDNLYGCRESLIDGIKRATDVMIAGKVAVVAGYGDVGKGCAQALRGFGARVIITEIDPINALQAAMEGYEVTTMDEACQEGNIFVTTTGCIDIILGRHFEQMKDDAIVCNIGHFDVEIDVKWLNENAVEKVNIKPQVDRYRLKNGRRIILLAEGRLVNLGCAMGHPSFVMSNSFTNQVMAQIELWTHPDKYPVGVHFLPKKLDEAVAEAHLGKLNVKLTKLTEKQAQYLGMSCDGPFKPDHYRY

Ki [2] [µM]	Structure (SMILES)	enzymatic turnover of SAH by purified recombinant AHCY, LC-MS quantification of [1]
	Nc1ncnc2c1ncn2[C@@H]1O[C@H](CSCC[C@H](N)C(=O)O)[C@@H](O)[C@H]1O [SAH]	purified AHCY revealed that SAH is converted to adenosine in an enzyme dependent fashion
36.5	C[N+](C)(C)[O-] [TMAO]	

Source: PMC12390942, “Gut microbiota–derived metabolite trimethylamine N-oxide alters the host epigenome through inhibition of S-adenosylhomocysteine hydrolase” (The Journal of Biological Chemistry, 2025)
